Legend:
PC3 = assay: Cytotoxicity propidium iodide assay, PC3; format: cell-based, human; details: Homo sapiens, PC-3; PC3 (prostate), 48 hours treatment; read-out: IC50 Values in μM, C2a
How it was run: (§1)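 Read-out: propidium iodide fluorescence after freeze-thaw, with untreated wells set to 100% viability and IC50 taken from the plotted percentages. Cells (3000/well) were pre-incubated 18-24 h, then treated 48 h with a range of compound concentrations.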

BT 549 = assay: Cytotoxicity propidium iodide assay, BT 549; format: cell-based; details: Homo sapiens; BT 549 (breast), 48 hours treatment; read-out: IC50 Values in μM, C3c
How it was run: as §1

LN229 = assay: Cytotoxicity propidium iodide assay, LN229; format: cell-based; details: Homo sapiens, LN-229; LN229 (glioblastoma), 48 hours treatment; read-out: IC50 Values in μM, C5a
Method: (§2) The assay was designed as in the reference, Anticancer Drugs, 2002, 13, 1-8, the disclosure of which is incorporated herein by reference for the teaching of the assay.
(§3) Cells from cell lines (ATCC) as mentioned in the table given below were seeded at a density of 3000 cells/well in a white opaque 96-well plate. Following incubation at 37° C./5% CO2 for a period of 18-24 hours, the cells were treated with various concentrations (stock solution was prepared in DMSO and subsequent dilutions were made in media as per ATCC guidelines) of the compounds of the present invention for a period of 48 hours. At the end of treatment, the culture medium was discarded, the cells were washed with 1×PBS and 200 μL of […] propidium iodide was added to each well. The plates were frozen at […] overnight. For analysis, the plates were warmed to RT, allowed to thaw and were read in PoleStar fluorimeter with the fluorescence setting. The percentage of viable cells in the non-treated set of wells was considered to be 100 and the percentage viability following treatment was calculated accordingly. IC50 values were calculated from graphs plotted using these percentages. IC50 values for certain compounds of present invention are depicted in Table 1 and % Inhibition of certain compounds of present invention are depicted in Table 2.

PI3K/mTOR pathway = assay: Western blot analysis in A2780 ovarian cancer cell line; format: cell-based; details: A2780 cells treated for 1 hour; FIG. 1A-1E
Method: Protocol for Western Blot Analysis
A2780 ovarian cancer cell line (ATCC) were grown to approximately 70% confluence in 100-mm tissue culture dishes and then treated for 1 hour with […] compounds of Example 2, 3, 5, 16, 19, 55 and 59. Total protein was extracted using cell lysis buffer (NaCl […], NP40 0.67%, Tris-Cl, pH 7.5, 67 mM) containing protease inhibitors and phosphatase inhibitors (Beta-glycerol phosphate 40 mM, DTT 1 mM, NaF 0.4 mM, Sodium-Orthovanadate 0.4 mM) at 4° C. for 1 hour. Cell lysates were then centrifuged at 2×10^4 g for 10 minutes at 4° C., and the protein concentration of the supernatant was quantified using the Bradford's method (BioRad, USA). For SDS-PAGE, 50 μg protein was loaded in SDS-PAGE, transferred to a polyvinylidene difluoride membrane (Bio-Rad, USA) and blocked with 5 mL buffer [5% skim milk and 0.1% Tween] for 1 hour 30 minutes. Membrane were probed with primary antibody (all primary antibodies were from cell signaling with 1:1000 in TBST solution) of respective protein at 4° C. overnight. Peroxidase-labeled anti-rabbit or anti-mouse antibodies (Santacruze, USA) were used as the secondary antibody. Actin and respective whole protein levels were used as the control for protein loading. Protein antigens were detected using Chemiluminescent Substrate (Thermo scientific, USA) and exposed on Kodak station.

LN18 = assay: Cytotoxicity propidium iodide assay, LN18; format: cell-based; details: Homo sapiens, LN-18; LN18 (glioblastoma), 48 hours treatment; read-out: IC50 Values in μM, C5b
Method: as §2, §3

hPBMC = assay: MTS toxicity assay in parallel to anti-CD3/anti-CD28 cytokine assay; format: cell-based, human; details: anti-CD3/anti-CD28 experiment
Method: (§4) hPBMC stimulation: Peripheral blood was collected from normal healthy volunteers after informed consent. Peripheral blood mononuclear cells (hPBMC) were harvested using Ficoll-Hypaque density gradient centrifugation (1.077 g/mL; Sigma Aldrich). hPBMCs were resuspended in RPMI 1640 culture medium (Gibco BRL, Pasley, UK) containing 10% FCS, 100 U/mL penicillin (Sigma Chemical Co. St Louis, Mo.) and […] streptomycin (Sigma Chemical Co. St Louis, Mo.) at 1.25×10^6 cells/mL of assay medium. 2.5×10^5 hPBMCs were added per well of 96-well plate coated with or without anti-CD3/anti-CD28 mAbs. Simultaneously, 0.025 μM of compounds of the present invention or 0.5% DMSO (vehicle control) were added to appropriate wells. The cells were then incubated for 18 hours at 37° C., 5% CO2 following which supernatants were collected, stored at […] and assayed later for TNF-α, IL-6 and IFN-γ by ELISA (OptiEIA ELISA sets; BD Biosciences). In every experiment, each condition was run in triplicate wells. In all experiments, the toxicity of test compounds was ascertained, in parallel, using the MTS (3-(4,5-dimethylthiazol-2-yl)-5-(3-carboxymethoxyphenyl)-2-(4-sulfonyl)-2H-tetrazolium) assay as described in Am. J. Physiol. Cell Physiol., 2003, 285, C813-C822.

IL-6 = assay: Anti-CD3 mAb and anti-CD28 mAb-induced cytokine production assay, IL-6; format: cell-based; details: Homo sapiens, hPBMC, anti-CD3/anti-CD28, 18 hours
Method: Anti-CD3 mAb and Anti-CD28 mAb-Induced Cytokine Production Assay
Preparation of anti-CD3/anti-CD28 coated plates: 96 well plates were coated with goat anti-mouse IgG, Fc (Millipore) at a concentration of 16.5 μg/mL in coating buffer ([…] NaHCO3, 3.56 g Na2CO3, pH 9.5). Following overnight incubation at 4° C., the plates were washed and then incubated with anti-CD3 (3.5 μg/mL; R&D Systems) and anti-CD28 (35 ng/mL; R&D Systems) cocktail for 3 hours. Subsequently, the plates were washed, and used for hPBMC stimulation.
as §4

BxPC3 = assay: Cytotoxicity propidium iodide assay, BxPC3; format: cell-based; details: Homo sapiens, BXPC-3; BxPC3 (pancreatic), 48 hours treatment; read-out: IC50 Values in μM, C4c
How it was run: as §1

SMILES | IC50 (PC3) | IC50 (BT 549) | IC50 (LN229) | Akt, S6 and 4EBP1 phosphorylation (Western blot) (PI3K/mTOR pathway) | IC50 (LN18) | % Toxicity at 0.025 μM (hPBMC) | inhibition at 0.025 µM (IL-6) | IC50 (BxPC3)
Cn1c(=O)n(-c2ccc(C(C)(C)C#N)nc2)c2c3cc(-c4cnc5ccccc5c4)ccc3ncc21 [Example 2, 2-Methyl-2-(5-(3-methyl-2-oxo-8-(quinolin-3-yl)-2,3-dihydro-1H-imidazo[4,5-c]quinolin-1-yl)pyridin-2-yl)propanenitrile] | 0.068 µM | 0.9 µM | 0.55 µM | inhibit Akt, S6 and 4EBP1 phosphorylation | 0.33 µM | 12% | 43% | 0.04 µM
Cn1c(=O)n(-c2ccc(C(C)(C)C#N)nc2)c2c3cc(-c4cnc(N)c(C(F)(F)F)c4)ccc3ncc21 [Example 3, 2-(5-(8-(6-Amino-5-(trifluoromethyl)pyridin-3-yl)-3-methyl-2-oxo-2,3-dihydro-1H-imidazo[4,5-c]quinolin-1-yl)pyridin-2-yl)-2-methylpropanenitrile] | 0.005 µM | 0.03 µM | 0.056 µM | inhibit Akt, S6 and 4EBP1 phosphorylation | 0.144 µM | 24% | 84% | 0.01 µM
CS(=O)(=O)O.Cn1c(=O)n(-c2ccc(C(C)(C)C#N)nc2)c2c3cc(-c4cnc(N)c(C(F)(F)F)c4)ccc3ncc21 [Example 3a, 8-(6-Amino-5-(trifluoromethyl)pyridin-3-yl)-1-(6-(2-cyanopropan-2-yl)pyridin-3-yl)-3-methyl-2-oxo-2,3-dihydro-1H-imidazo[4,5-c]quinolin-5-ium methanesulfonate] | – | – | – | inhibit Akt, S6 and 4EBP1 phosphorylation | – | – | – | –
CC(C)(C#N)c1ccc(-n2c(=O)n(CC#N)c3cnc4ccc(-c5cnc(N)c(C(F)(F)F)c5)cc4c32)cn1 [Example 16, 2-(5-(8-(6-Amino-5-(trifluoromethyl)pyridin-3-yl)-3-(cyanomethyl)-2-oxo-2,3-dihydro-1H-imidazo[4,5-c]quinolin-1-yl)pyridin-2-yl)-2-methylpropanenitrile] | 0.025 µM | 0.015 µM | 0.65 µM | inhibit Akt, S6 and 4EBP1 phosphorylation | 0.44 µM | 0% | 75% | 0.008 µM
COc1ccc(-n2c(=O)n(C)c3cnc4ccc(-c5cnc(N)c(C(F)(F)F)c5)cc4c32)cn1 [Example 19, 8-(6-Amino-5-(trifluoromethyl)pyridin-3-yl)-1-(6-methoxypyridin-3-yl)-3-methyl-1H-imidazo[4,5-c]quinolin-2(3H)-one] | 0.006 µM | 0.23 µM | 0.096 µM | inhibit Akt, S6 and 4EBP1 phosphorylation | 0.096 µM | 19% | 86% | 0.016 µM

— patent US20130310374A1, “Substituted Imidazoquinoline Derivatives” (PIRAMAL ENTERPRISES LIMITED`, priority 2010, published 2013)
